Reference: patent publication US8476197B2, “Aminopropenoates as fungicides” (priority 2009, dated 2013)
Marks after values point to notes of the source that are not given here.

Conditions: pH 2.3

| SMILES | Log P |
| --- | --- |
| CC(C)C(C)NC(=C(C#N)C(=O)OC1CCC1)c1cccnc1Cl (centres unmarked) [Compound 1284] | 3.79^[c]; 3.79^[b] |
| CCOC(=O)C(C#N)=C(Nc1cnc2sccc2c1)c1cccnc1Cl [Compound 1310] | 2.56 |

Same assay, conditions: pH 2.7

| SMILES | Log P |
| --- | --- |
| CCOC(=O)C(C#N)=C(NC(C)c1nccs1)c1ccnc(C)c1Cl (centres unmarked) [Compound 1285] | 2.57^[a] |
| CC(C)C(C)NC(=C(C#N)C(=O)N(C)C)c1cn(C)nc1C(F)F (centres unmarked) [Compound 1286] | 2.45^[a] |
| CCNC(=O)C(C#N)=C(NC(C)c1nccs1)c1ccnc(Cl)c1Cl (centres unmarked) [Compound 1289] | 2.57^[a] |
| CCOC(=O)C(C#N)=C(NC(C)c1nccs1)c1ccnc(Br)c1Cl (centres unmarked) [Compound 1290] | 3.02^[a] |
| CC(NC(=C(C#N)C(=O)N(C)C)c1cn(C)nc1C(F)F)c1ccccn1 (centres unmarked) [Compound 1295] | 1.59^[a] |
| CC(NC(=C(C#N)C(=O)N(C)C)c1cn(C)nc1C(F)F)c1nccs1 (centres unmarked) [Compound 1296] | 1.81^[a] |
| C#CCNC(=O)C(C#N)=C(NC(C)c1nccs1)c1cn(C)nc1C(F)F (centres unmarked) [Compound 1297] | 2.04^[a] |
| CC(C)[C@H](C)N/C(=C(/C#N)C(=O)NC1COC1)c1cn(C)nc1C(F)F [Compound 1298] | 1.84^[a] |
| CC(C)C(C)NC(=C(C#N)C(=O)NCCC#N)c1cn(C)nc1C(F)F (centres unmarked) [Compound 1299] | 2.44^[a] |
| CCOC(=O)C(C#N)=C(NC(C)c1ccccn1)c1cnn(C)c1C(F)F (centres unmarked) [Compound 1300] | 2.41^[a] |
| CCOC(=O)C(C#N)=C(NC(C)C(C)C)c1cnn(C)c1C(F)F (centres unmarked) [Compound 1301] | 3.23^[a] |
| CCOC(=O)C(C#N)=C(NC(C)c1nccs1)c1cnn(C)c1C(F)F (centres unmarked) [Compound 1302] | 2.46^[a] |
| CCOC(=O)C(C#N)=C(NC(C)C1CC1)c1cnn(C)c1C(F)F (centres unmarked) [Compound 1303] | 2.98^[a] |
| CCOC(=O)C(C#N)=C(NC1CCC1)c1cnn(C)c1C(F)F [Compound 1304] | 2.84^[a] |
| CCNC(=O)C(C#N)=C(NC(C)c1nccs1)c1ccnc(Br)c1Cl (centres unmarked) [Compound 1305] | 2.62^[a] |
| CCNC(=O)C(C#N)=C(NC(C)c1nccs1)c1ccnc(C)c1Cl (centres unmarked) [Compound 1306] | 2.18^[a] |

| SMILES | Log P |
| --- | --- |
| CCNC(=O)C(C#N)=C(NC(C)c1nccs1)c1cnn(C)c1C(F)F (centres unmarked) [Compound 1308] | 2.11^[a] |
| CCNC(=O)C(C#N)=C(NC(C)C1CC1)c1cnn(C)c1C(F)F (centres unmarked) [Compound 1309] | 2.64^[a] |
| CCOC(=O)C(C#N)=C(NC(C)C(C)C)c1ccnc(Cl)c1F (centres unmarked) [Compound 1311] | 3.81^[a] |
| CCOC(=O)C(C#N)=C(NC(C)c1ccccn1)c1ccnc(Cl)c1F (centres unmarked) [Compound 1312] | 3^[a] |
| CCOC(=O)C(C#N)=C(NC(C)c1nccs1)c1ccnc(Cl)c1F (centres unmarked) [Compound 1313] | 2.96^[a] |
| CCOC(=O)C(C#N)=C(NC(C)C(C)C)c1ccnc(Br)c1F (centres unmarked) [Compound 1315] | 3.87^[a] |
| CCNC(=O)C(C#N)=C(NC(C)C(C)C)c1ccnc(Cl)c1F (centres unmarked) [Compound 1316] | 3.44^[a] |
| CCOC(=O)C(C#N)=C(NC(C)C(C)C)c1ccnc(C)c1F (centres unmarked) [Compound 1317] | 3.31^[a] |
| CCOC(=O)C(C#N)=C(NC(C)C1CC1)c1ccnc(Cl)c1F (centres unmarked) [Compound 1318] | 3.5^[a] |
| CCOC(=O)C(C#N)=C(NC(C)c1nccs1)c1ccnc(C)c1F (centres unmarked) [Compound 1319] | 2.48^[a] |
| CCOC(=O)C(C#N)=C(NC(C)c1ccccn1)c1ccnc(C)c1F (centres unmarked) [Compound 1320] | 2.5^[a] |
| CCOC(=O)C(C#N)=C(NC1CCC1)c1ccnc(Cl)c1F [Compound 1321] | 3.39^[a] |
| CCNC(=O)C(C#N)=C(NC(C)C(C)C)c1ccnc(Br)c1F (centres unmarked) [Compound 1323] | 3.46^[a] |
| CCOC(=O)C(C#N)=C(NC(C)C(=O)NC)c1ccnc(Cl)c1F (centres unmarked) [Compound 1324] | 2.15^[a] |
| CC#CC(C)NC(=C(C#N)C(=O)OCC)c1ccnc(Cl)c1F (centres unmarked) [Compound 1325] | 3.39^[a] |

Same assay, conditions: pH 7.5

| SMILES | Log P |
| --- | --- |
| CC(C)C(C)NC(=C(C#N)C(=O)OC1CCC1)c1cccnc1Cl (centres unmarked) [Compound 1284] | 3.79^[c]; 3.79^[b] |
| CCOC(=O)C(C#N)=C(Nc1cnc2sccc2c1)c1cccnc1Cl [Compound 1310] | 2.49 |
